We go through 1 compound from PMC7646549, “Novel piperidine derivatives as colchicine binding site inhibitors induce apoptosis and inhibit epithelial-mesenchymal transition against prostate cancer PC3 cells” (Journal of Enzyme Inhibition and Medicinal Chemistry, 2020).

pIC50: −log10 of the molar value.

For the assay, the system named is T1, tubulin (β-tubulin, colchicine binding site).
T1 construct: gene TUBB; with α-tubulin
Description: in vitro tubulin polymerisation assay; supported by EBI competition assay (β-tubulin adduct) in PC3 cells. The assay is classed as biochemical.

Compound `COc1ccc(CN(C(=O)CN2C(=O)CCCC2=O)c2cc(OC)c(OC)c(OC)c2)cc1` [17a, 2–(2,6-Dioxopiperidin-1-yl)-N-(4-methoxybenzyl)-N-(3,4,5-trimethoxyphenyl) acetamide] had a pIC50 of 5.69.

By pIC50 is commonly meant the IC50 on a negative log10 scale, so that one unit is a factor of ten.
